Data from patent publication US11787785B2 (NOVARTIS AG, priority 2021, dated 2023).

Target: T1, WIZ protein (HiBit-WIZ fusion protein) (Homo sapiens, UniProt O95785+Q96SW2)
T1 construct: expressed in transfected cells
Experiment: Quantification of WIZ protein levels in HiBit tag fusion protein assay (WIZ HiBit assay in 293T cells)
Assay type: cell-based
Parameters: remaining activity / Dmax: dose or concentration left out as unconfirmed
Conditions: for Dmax at 25 µM: 100 − Amax; for Dmax at 25 µM / remaining activity at 25 µM: 293T cells; for remaining activity at 25 µM: DMSO-normalized, curve-fitted percentage of WIZ-HiBit remaining at 25 uM; for DC50: WIZ HiBit assay in 293T cells, 10-point, 5-fold dose response, highest concentration 25 μM, about 18 hours, read-out: WIZ AC50
How it was run: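 Luminescence after LgBit complementation quantified remaining HiBit-WIZ in lysates of single-copy stable 293T lines. Cells dosed ~18 h at 37 °C with 10-point, 5-fold dilutions (highest 25 μM); DMSO set to 100%, fitted curve gave % remaining at 25 μM (Amax).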

[1] = HEK-293T, read-out: % degradation of WIZ (100 − Amax)

T1 sequence (O95785 whole entry, the tested form may be a part): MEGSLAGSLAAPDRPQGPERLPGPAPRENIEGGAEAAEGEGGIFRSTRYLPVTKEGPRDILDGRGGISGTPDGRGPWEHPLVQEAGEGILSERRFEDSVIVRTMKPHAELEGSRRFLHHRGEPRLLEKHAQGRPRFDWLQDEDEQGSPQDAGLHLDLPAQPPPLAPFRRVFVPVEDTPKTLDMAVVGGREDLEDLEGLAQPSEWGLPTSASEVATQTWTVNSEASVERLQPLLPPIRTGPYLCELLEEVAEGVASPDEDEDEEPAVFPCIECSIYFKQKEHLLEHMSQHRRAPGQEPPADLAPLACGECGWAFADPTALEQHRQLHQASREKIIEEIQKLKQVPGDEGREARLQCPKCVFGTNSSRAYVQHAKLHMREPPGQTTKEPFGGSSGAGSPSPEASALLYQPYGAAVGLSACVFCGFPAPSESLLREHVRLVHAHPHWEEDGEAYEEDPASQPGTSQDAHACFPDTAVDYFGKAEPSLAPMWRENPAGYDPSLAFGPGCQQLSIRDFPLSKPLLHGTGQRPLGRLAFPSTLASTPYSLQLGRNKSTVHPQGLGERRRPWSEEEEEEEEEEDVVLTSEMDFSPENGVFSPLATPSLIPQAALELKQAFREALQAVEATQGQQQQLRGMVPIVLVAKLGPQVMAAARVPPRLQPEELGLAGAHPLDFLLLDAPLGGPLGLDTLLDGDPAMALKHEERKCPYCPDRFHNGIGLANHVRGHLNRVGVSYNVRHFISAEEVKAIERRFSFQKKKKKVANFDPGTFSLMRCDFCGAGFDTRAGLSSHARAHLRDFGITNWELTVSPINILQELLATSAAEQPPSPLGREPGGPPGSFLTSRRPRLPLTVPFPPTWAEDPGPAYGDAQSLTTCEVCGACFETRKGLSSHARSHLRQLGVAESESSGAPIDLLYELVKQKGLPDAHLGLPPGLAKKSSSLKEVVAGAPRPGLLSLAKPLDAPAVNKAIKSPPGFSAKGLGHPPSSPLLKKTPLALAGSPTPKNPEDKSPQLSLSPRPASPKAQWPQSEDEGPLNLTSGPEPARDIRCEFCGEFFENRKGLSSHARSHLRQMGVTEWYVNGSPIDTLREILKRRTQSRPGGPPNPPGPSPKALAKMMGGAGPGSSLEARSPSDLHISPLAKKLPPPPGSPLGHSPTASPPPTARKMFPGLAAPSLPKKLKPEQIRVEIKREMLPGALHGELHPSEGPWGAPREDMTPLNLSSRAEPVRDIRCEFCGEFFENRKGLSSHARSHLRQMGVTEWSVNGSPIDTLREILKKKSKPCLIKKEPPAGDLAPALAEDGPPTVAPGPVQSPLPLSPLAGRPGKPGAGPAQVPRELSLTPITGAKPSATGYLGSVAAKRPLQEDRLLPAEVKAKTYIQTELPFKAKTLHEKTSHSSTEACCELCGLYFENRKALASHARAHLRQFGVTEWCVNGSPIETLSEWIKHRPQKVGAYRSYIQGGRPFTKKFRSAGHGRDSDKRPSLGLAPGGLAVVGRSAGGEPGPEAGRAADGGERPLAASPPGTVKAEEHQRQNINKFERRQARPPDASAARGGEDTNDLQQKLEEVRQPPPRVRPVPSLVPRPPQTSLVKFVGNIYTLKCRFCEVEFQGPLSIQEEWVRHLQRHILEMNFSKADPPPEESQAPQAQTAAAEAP
T1 sequence (Q96SW2 whole entry, the tested form may be a part): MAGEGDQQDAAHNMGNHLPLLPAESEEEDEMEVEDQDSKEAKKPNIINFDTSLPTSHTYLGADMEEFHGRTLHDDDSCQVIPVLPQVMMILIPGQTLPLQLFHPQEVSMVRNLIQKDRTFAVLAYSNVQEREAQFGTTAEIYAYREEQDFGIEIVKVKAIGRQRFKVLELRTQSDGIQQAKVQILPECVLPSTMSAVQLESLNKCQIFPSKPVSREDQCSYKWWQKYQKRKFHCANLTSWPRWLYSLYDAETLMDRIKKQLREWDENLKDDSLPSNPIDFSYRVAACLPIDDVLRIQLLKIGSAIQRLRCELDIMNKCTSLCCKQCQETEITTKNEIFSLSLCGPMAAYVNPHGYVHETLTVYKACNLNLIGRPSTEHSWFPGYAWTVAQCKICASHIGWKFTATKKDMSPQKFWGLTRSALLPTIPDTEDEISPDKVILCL
T1 sequence (Q16531 whole entry partner, the tested form may be a part): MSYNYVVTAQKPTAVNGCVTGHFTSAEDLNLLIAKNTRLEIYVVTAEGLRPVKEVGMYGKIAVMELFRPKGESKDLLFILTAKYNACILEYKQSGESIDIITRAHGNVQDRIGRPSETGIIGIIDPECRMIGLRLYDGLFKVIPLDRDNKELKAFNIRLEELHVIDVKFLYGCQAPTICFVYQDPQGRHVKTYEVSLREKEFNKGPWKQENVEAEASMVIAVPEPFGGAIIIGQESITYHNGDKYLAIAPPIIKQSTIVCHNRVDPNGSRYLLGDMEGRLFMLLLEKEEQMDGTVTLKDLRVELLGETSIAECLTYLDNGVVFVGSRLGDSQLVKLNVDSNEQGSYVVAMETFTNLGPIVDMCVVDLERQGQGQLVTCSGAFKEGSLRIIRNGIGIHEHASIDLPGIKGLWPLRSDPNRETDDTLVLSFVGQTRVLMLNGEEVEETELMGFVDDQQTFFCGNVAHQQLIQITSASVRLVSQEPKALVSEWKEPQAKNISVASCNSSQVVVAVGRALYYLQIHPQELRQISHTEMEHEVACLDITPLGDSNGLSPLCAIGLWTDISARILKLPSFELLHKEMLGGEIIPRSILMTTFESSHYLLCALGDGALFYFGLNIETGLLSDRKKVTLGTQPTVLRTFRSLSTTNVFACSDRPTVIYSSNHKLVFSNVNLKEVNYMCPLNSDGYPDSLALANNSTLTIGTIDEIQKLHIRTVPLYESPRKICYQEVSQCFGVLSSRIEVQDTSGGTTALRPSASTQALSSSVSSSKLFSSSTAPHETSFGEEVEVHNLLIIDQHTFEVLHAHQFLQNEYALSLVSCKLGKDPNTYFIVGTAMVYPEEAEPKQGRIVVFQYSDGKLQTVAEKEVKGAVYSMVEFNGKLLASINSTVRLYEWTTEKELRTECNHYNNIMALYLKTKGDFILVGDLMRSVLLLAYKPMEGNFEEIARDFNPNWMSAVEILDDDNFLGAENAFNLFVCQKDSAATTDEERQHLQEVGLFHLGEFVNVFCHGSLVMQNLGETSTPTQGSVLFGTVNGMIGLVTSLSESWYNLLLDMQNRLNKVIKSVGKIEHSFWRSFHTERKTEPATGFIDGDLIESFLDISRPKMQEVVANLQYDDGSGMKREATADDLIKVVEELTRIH

| Structure (SMILES) | Dmax at 25 µM [1] [%] | remaining activity at 25 µM (HEK-293T, read-out: WIZ Amax) [%] | DC50 [nM] | Dmax [1] [%] | remaining activity (HEK-293T, read-out: WIZ Amax) [%] |
| --- | --- | --- | --- | --- | --- |
| O=C1CCN(c2cnn3ccc(CN4CCCNCC4)cc23)C(=O)N1 [Example 248, 1-(5-((1,4-diazepan-1-yl)methyl)pyrazolo[1,5-a]pyridin-3-yl)dihydropyrimidine-2,4(1H,3H)-dione] | 0 | 100 | > 25000 |  |  |
| O=C1CCN(c2cnn3ccc(CN4CCCN(CC5CCCCC5)CC4)cc23)C(=O)N1 [Example 249, 1-(5-((4-(cyclohexylmethyl)-1,4-diazepan-1-yl)methyl)pyrazolo[1,5-a]pyridin-3-yl)dihydropyrimidine-2,4(1H,3H)-dione] | 41 | 59 | 300 |  |  |
| CC(C)CN1CCCN(Cc2ccn3ncc(N4CCC(=O)NC4=O)c3c2)CC1 [Example 250, 1-(5-((4-isobutyl-1,4-diazepan-1-yl)methyl)pyrazolo[1,5-a]pyridin-3-yl)dihydropyrimidine-2,4(1H,3H)-dione] | 41 | 59 | 1350 |  |  |
| O=C1CCN(c2cnn3ccc(CN4C[C@H]5CC[C@@H](C4)N5Cc4cccc(F)c4)cc23)C(=O)N1 [Example 251, 1-(5-(((1R,5S)-8-(3-fluorobenzyl)-3,8-diazabicyclo[3.2.1]octan-3-yl)methyl)pyrazolo[1,5-a]pyridin-3-yl)dihydropyrimidine-2,4(1H,3H)-dione] | 18 | 82 | 165 |  |  |
| O=C1CCN(c2cnn3ccc(CN4C[C@H]5CC[C@@H](C4)N5CC4CCCCC4)cc23)C(=O)N1 [Example 252, 1-(5-(((1R,5S)-8-(cyclohexylmethyl)-3,8-diazabicyclo[3.2.1]octan-3-yl)methyl)pyrazolo[1,5-a]pyridin-3-yl)dihydropyrimidine-2,4(1H,3H)-dione] | 42 | 58 | 277 |  |  |
| O=C1CCN(c2cnn3ccc(CN4C[C@H]5CC[C@@H](C4)N5Cc4cccnc4)cc23)C(=O)N1 [Example 253, 1-(5-(((1R,5S)-8-(pyridin-3-ylmethyl)-3,8-diazabicyclo[3.2.1]octan-3-yl)methyl)pyrazolo[1,5-a]pyridin-3-yl)dihydropyrimidine-2,4(1H,3H)-dione] | 23 | 77 | 531 |  |  |
| CC(C)CN1CCN(Cc2ccn3ncc(N4CCC(=O)NC4=O)c3c2)C(=O)C1 [Example 254, 1-(5-((4-isobutyl-2-oxopiperazin-1-yl)methyl)pyrazolo[1,5-a]pyridin-3-yl)dihydropyrimidine-2,4(1H,3H)-dione] | 0 | 100 | > 25000 |  |  |
| O=C1CCN(c2cnn3ccc(CN4CCN(CC5CCCCC5)CC4=O)cc23)C(=O)N1 [Example 255, 1-(5-((4-(cyclohexylmethyl)-2-oxopiperazin-1-yl)methyl)pyrazolo[1,5-a]pyridin-3-yl)dihydropyrimidine-2,4(1H,3H)-dione] | 0 | 100 | > 25000 |  |  |
| C[C@@H]1CN(Cc2ccn3ncc(N4CCC(=O)NC4=O)c3c2)C[C@H](C)N1CC1CCOCC1 [Example 256, 1-(5-(((3S,5R)-3,5-dimethyl-4-((tetrahydro-2H-pyran-4-yl)methyl)piperazin-1-yl)methyl)pyrazolo[1,5-a]pyridin-3-yl)dihydropyrimidine-2,4(1H,3H)-dione] | 78 | 22 | 186 |  |  |
| CC(C)CN1[C@H](C)CN(Cc2ccn3ncc(N4CCC(=O)NC4=O)c3c2)C[C@@H]1C [Example 257, 1-(5-(((3S,5R)-4-isobutyl-3,5-dimethylpiperazin-1-yl)methyl)pyrazolo[1,5-a]pyridin-3-yl)dihydropyrimidine-2,4(1H,3H)-dione] | 74 | 26 | 101 |  |  |
| C[C@H]1CN(Cc2ccn3ncc(N4CCC(=O)NC4=O)c3c2)C[C@H](C)N1CC1CCCCC1 [Example 258, 1-(5-(((3S,5S)-4-(cyclohexylmethyl)-3,5-dimethylpiperazin-1-yl)methyl)pyrazolo[1,5-a]pyridin-3-yl)dihydropyrimidine-2,4(1H,3H)-dione] | 69 | 31 | 148 |  |  |
| CC(C)CN1[C@@H](C)CN(Cc2ccn3ncc(N4CCC(=O)NC4=O)c3c2)C[C@@H]1C [Example 259, 1-(5-(((3S,5S)-4-isobutyl-3,5-dimethylpiperazin-1-yl)methyl)pyrazolo[1,5-a]pyridin-3-yl)dihydropyrimidine-2,4(1H,3H)-dione] | 61 | 39 | 258 |  |  |
| O=C1CCN(c2cnn3ccc(CN4CCN5CCC[C@H]5C4)cc23)C(=O)N1 [Example 260, (S)-1-(5-((hexahydropyrrolo[1,2-a]pyrazin-2(1H)-yl)methyl)pyrazolo[1,5-a]pyridin-3-yl)dihydropyrimidine-2,4(1H,3H)-dione] | 68 | 32 | 796 |  |  |
| O=C1CCN(c2cnn3ccc(CN4CCN5CCC[C@@H]5C4)cc23)C(=O)N1 [Example 261, (R)-1-(5-((hexahydropyrrolo[1,2-a]pyrazin-2(1H)-yl)methyl)pyrazolo[1,5-a]pyridin-3-yl)dihydropyrimidine-2,4(1H,3H)-dione] | 63 | 37 | 417 |  |  |
| O=C1CCN(c2cnn3ccc(CN4CCN5CCCC[C@H]5C4)cc23)C(=O)N1 [Example 262, (S)-1-(5-((octahydro-2H-pyrido[1,2-a]pyrazin-2-yl)methyl)pyrazolo[1,5-a]pyridin-3-yl)dihydropyrimidine-2,4(1H,3H)-dione] | 68 | 32 | 583 |  |  |
| O=C1CCN(c2cnn3ccc(CN4CCN5CCOC[C@H]5C4)cc23)C(=O)N1 [Example 263, (R)-1-(5-((hexahydropyrazino[2,1-c][1,4]oxazin-8(1H)-yl)methyl)pyrazolo[1,5-a]pyridin-3-yl)dihydropyrimidine-2,4(1H,3H)-dione] | 55 | 45 | 880 |  |  |
| O=C1CCN(c2cnn3ccc(CN4CCN5CCOC[C@@H]5C4)cc23)C(=O)N1 [Example 264, (S)-1-(5-((hexahydropyrazino[2,1-c][1,4]oxazin-8(1H)-yl)methyl)pyrazolo[1,5-a]pyridin-3-yl)dihydropyrimidine-2,4(1H,3H)-dione] | 64 | 36 | 260 |  |  |
| CCO[C@H]1CC[C@H](CN2CCC(Cc3ccn4ncc(N5CCC(=O)NC5=O)c4c3)CC2)CC1 [Example 266, 1-(5-((1-(((1r,4r)-4-ethoxycyclohexyl)methyl)piperidin-4-yl)methyl)pyrazolo[1,5-a]pyridin-3-yl)dihydropyrimidine-2,4(1H,3H)-dione] | 81 | 19 | 44 |  |  |
| CC(C)CN1CCC(C(C)c2ccn3ncc(N4CCC(=O)NC4=O)c3c2)CC1 (stereo not drawn) [Example 267, 1-(5-(1-(1-isobutylpiperidin-4-yl)ethyl)pyrazolo[1,5-a]pyridin-3-yl)dihydropyrimidine-2,4(1H,3H)-dione] | 86 | 14 | 100 |  |  |
| C[C@H]1C[C@H](Cc2ccn3ncc(-n4ccc(=O)[nH]c4=O)c3c2)CCN1CC1CCC(F)(F)CC1 [Example 268, 1-(5-(((2S,4R)-1-((4,4-difluorocyclohexyl)methyl)-2-methylpiperidin-4-yl)methyl)pyrazolo[1,5-a]pyridin-3-yl)pyrimidine-2,4(1H,3H)-dione] | 89 | 11 | 24 |  |  |
| O=C1CCN(c2cnn3ccc(CC4CCCNCC4)cc23)C(=O)N1 (stereo not drawn) [Example 269, 1-(5-(azepan-4-ylmethyl)pyrazolo[1,5-a]pyridin-3-yl)dihydropyrimidine-2,4(1H,3H)-dione] | 49 | 51 | 1020 |  |  |
| CC(C)(C)OC(=O)N1CCCC(Cc2ccn3ncc(N4CCC(=O)NC4=O)c3c2)CC1 (stereo not drawn) [Example 270, tert-butyl 4-((3-(2,4-dioxotetrahydropyrimidin-1(2H)-yl)pyrazolo[1,5-a]pyridin-5-yl)methyl)azepane-1-carboxylate] | 57 | 43 | 99 |  |  |
| CN1CCCC(Cc2ccn3ncc(N4CCC(=O)NC4=O)c3c2)CC1 (stereo not drawn) [Example 271, 1-(5-((1-methylazepan-4-yl)methyl)pyrazolo[1,5-a]pyridin-3-yl)dihydropyrimidine-2,4(1H,3H)-dione] | 63 | 37 | 702 |  |  |
| O=C1CCN(c2cnn3ccc(CC4CCCN(CC5CCCCC5)CC4)cc23)C(=O)N1 (stereo not drawn) [Example 272, 1-(5-((1-(cyclohexylmethyl)azepan-4-yl)methyl)pyrazolo[1,5-a]pyridin-3-yl)dihydropyrimidine-2,4(1H,3H)-dione] | 69 | 31 | 25 |  |  |
| C[C@H]1C[C@H](Cc2ccn3ncc(N4CCC(=O)NC4=O)c3c2)CCN1CC(F)(F)C(F)F [Example 273, 1-(5-(((2S,4R)-2-methyl-1-(2,2,3,3-tetrafluoropropyl)piperidin-4-yl)methyl)pyrazolo[1,5-a]pyridin-3-yl)dihydropyrimidine-2,4(1H,3H)-dione] |  |  | 40 | 78 | 22 |
